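Cells were grown in 96-well plates and exposed to each compound for 48 hours at five concentrations; endpoints were interpolated linearly between bracketing concentrations, or set to the highest concentration if not reached. GI50 marks 50% less growth. At the TGI there is no net growth.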
Assays:
Assay in all cases: growth of human tumour cells (NCI), 48 h
NCI-H522 lung = system: NCI-H522 lung
MCF7 breast = system: MCF7 breast
MALME-3M melanoma = system: MALME-3M melanoma
NCI-H23 lung = system: NCI-H23 lung
SNB-75 CNS = system: SNB-75 CNS
M14 melanoma = system: M14 melanoma
NCI-H460 lung = system: NCI-H460 lung
RXF 393 renal = system: RXF 393 renal
RPMI-8226 leukemia = system: RPMI-8226 leukemia
SF-268 CNS = system: SF-268 CNS
OVCAR-8 ovarian = system: OVCAR-8 ovarian
SK-OV-3 ovarian = system: SK-OV-3 ovarian
HS 578T breast = system: HS 578T breast
SNB-19 CNS = system: SNB-19 CNS
HOP-92 NSCLC = system: HOP-92 NSCLC
SF-295 CNS = system: SF-295 CNS
EKVX NSCLC = system: EKVX NSCLC
DU-145 prostate = system: DU-145 prostate
HCT-15 colon = system: HCT-15 colon
UACC-257 melanoma = system: UACC-257 melanoma
BT-549 breast = system: BT-549 breast
OVCAR-5 ovarian = system: OVCAR-5 ovarian
HT29 colon = system: HT29 colon
U251 CNS = system: U251 CNS
LOX IMVI melanoma = system: LOX IMVI melanoma
UO-31 renal = system: UO-31 renal
NCI-H226 lung = system: NCI-H226 lung
HL-60(TB) leukemia = system: HL-60(TB) leukemia
SN12C renal = system: SN12C renal
OVCAR-3 ovarian = system: OVCAR-3 ovarian
OVCAR-4 ovarian = system: OVCAR-4 ovarian
MDA-MB-468 breast = system: MDA-MB-468 breast
ACHN renal = system: ACHN renal
K-562 leukemia = system: K-562 leukemia
KM12 colon = system: KM12 colon
COLO 205 colon = system: COLO 205 colon
T-47D breast = system: T-47D breast
A549 NSCLC = system: A549 NSCLC
CCRF-CEM leukemia = system: CCRF-CEM leukemia
HOP-62 NSCLC = system: HOP-62 NSCLC
SK-MEL-28 melanoma = system: SK-MEL-28 melanoma
CAKI-1 renal = system: CAKI-1 renal
MDA-MB-231 breast = system: MDA-MB-231 breast
HCC-2998 colon = system: HCC-2998 colon
SF-539 CNS = system: SF-539 CNS
IGROV1 ovarian = system: IGROV1 ovarian
MDA-MB-435 = system: MDA-MB-435
HCT-116 colon = system: HCT-116 colon
SW-620 colon = system: SW-620 colon
SK-MEL-5 melanoma = system: SK-MEL-5 melanoma
PC-3 prostate = system: PC-3 prostate
UACC-62 melanoma = system: UACC-62 melanoma
786-0 renal = system: 786-0 renal
MOLT-4 leukemia = system: MOLT-4 leukemia
TK-10 renal = system: TK-10 renal
SR leukemia = system: SR leukemia
A498 renal = system: A498 renal

`COc1ccc(N2N=C(c3ccc4c(c3)OCO4)CC2c2cccc(NC(=O)CCNS(=O)(=O)c3ccc(Cl)cc3)c2)cc1` (centres undefined) showed a GI50 (NCI-H522 lung) of 2.73 µM, a TGI (NCI-H522 lung) of 7.92 µM and a GI50 (MCF7 breast) of 4.21 µM. For the same molecule, the TGI (MCF7 breast) was greater than 100 µM, the GI50 (MALME-3M melanoma) was 5.42 µM and the TGI (MALME-3M melanoma) was greater than 100 µM. It also gave a GI50 (NCI-H23 lung) of 22.6 µM, a TGI (NCI-H23 lung) greater than 100 µM and a GI50 (SNB-75 CNS) of 9.46 µM. It also gave a TGI (SNB-75 CNS) greater than 100 µM, a GI50 (M14 melanoma) of 9.12 µM and a TGI (M14 melanoma) greater than 100 µM. It also gave a GI50 (NCI-H460 lung) of 11.3 µM, a TGI (NCI-H460 lung) greater than 100 µM and a GI50 (RXF 393 renal) of 4.98 µM. The TGI (RXF 393 renal) was greater than 100 µM, the GI50 (RPMI-8226 leukemia) was 6.44 µM and the TGI (RPMI-8226 leukemia) was greater than 100 µM. For the same molecule, the GI50 (SF-268 CNS) was 11.6 µM, the TGI (SF-268 CNS) was greater than 100 µM and the GI50 (OVCAR-8 ovarian) was 82.8 µM. For the same molecule, the TGI (OVCAR-8 ovarian) was greater than 100 µM, the GI50 (SK-OV-3 ovarian) was 54.7 µM and the TGI (SK-OV-3 ovarian) was greater than 100 µM. It also gave a GI50 (HS 578T breast) of 10.6 µM, a TGI (HS 578T breast) greater than 100 µM and a GI50 (SNB-19 CNS) of 16.4 µM. The TGI (SNB-19 CNS) was greater than 100 µM, the GI50 (HOP-92 NSCLC) was 8.13 µM and the TGI (HOP-92 NSCLC) was 76.8 µM. The GI50 (SF-295 CNS) was 5.22 µM, the TGI (SF-295 CNS) was 72.2 µM and the GI50 (EKVX NSCLC) was 4.36 µM. It also gave a TGI (EKVX NSCLC) greater than 100 µM, a GI50 (DU-145 prostate) of 13.6 µM and a TGI (DU-145 prostate) greater than 100 µM. The GI50 (HCT-15 colon) was 7.25 µM, the TGI (HCT-15 colon) was greater than 100 µM and the GI50 (UACC-257 melanoma) was 77.1 µM. The TGI (UACC-257 melanoma) was greater than 100 µM, the GI50 (BT-549 breast) was 3.03 µM and the TGI (BT-549 breast) was 20.3 µM. It also gave a GI50 (OVCAR-5 ovarian) of 51.6 µM, a TGI (OVCAR-5 ovarian) greater than 100 µM and a GI50 (HT29 colon) of 7.96 µM. It also gave a TGI (HT29 colon) greater than 100 µM, a GI50 (U251 CNS) of 20.5 µM and a TGI (U251 CNS) greater than 100 µM. For the same molecule, the GI50 (LOX IMVI melanoma) was 12.1 µM, the TGI (LOX IMVI melanoma) was greater than 100 µM and the GI50 (UO-31 renal) was 15.6 µM. For the same molecule, the TGI (UO-31 renal) was greater than 100 µM, the GI50 (NCI-H226 lung) was 18 µM and the TGI (NCI-H226 lung) was greater than 100 µM. It also gave a GI50 (HL-60(TB) leukemia) of 25.7 µM, a TGI (HL-60(TB) leukemia) greater than 100 µM and a GI50 (SN12C renal) of 14.4 µM. The TGI (SN12C renal) was greater than 100 µM, the GI50 (OVCAR-3 ovarian) was 47.6 µM and the TGI (OVCAR-3 ovarian) was greater than 100 µM. For the same molecule, the GI50 (OVCAR-4 ovarian) was 19.1 µM, the TGI (OVCAR-4 ovarian) was greater than 100 µM and the GI50 (MDA-MB-468 breast) was 7.03 µM. For the same molecule, the TGI (MDA-MB-468 breast) was greater than 100 µM, the GI50 (ACHN renal) was 11.6 µM and the TGI (ACHN renal) was greater than 100 µM. It also gave a GI50 (K-562 leukemia) of 3.97 µM, a TGI (K-562 leukemia) greater than 100 µM and a GI50 (KM12 colon) of 12 µM. The TGI (KM12 colon) was greater than 100 µM, the GI50 (COLO 205 colon) was 25.1 µM and the TGI (COLO 205 colon) was greater than 100 µM. The GI50 (T-47D breast) was 7.96 µM, the TGI (T-47D breast) was greater than 100 µM and the GI50 (A549 NSCLC) was 42.4 µM. The TGI (A549 NSCLC) was greater than 100 µM, the GI50 (CCRF-CEM leukemia) was 5.4 µM and the TGI (CCRF-CEM leukemia) was greater than 100 µM. The GI50 (HOP-62 NSCLC) was 63.4 µM, the TGI (HOP-62 NSCLC) was greater than 100 µM and the GI50 (SK-MEL-28 melanoma) was 7.37 µM. It also gave a TGI (SK-MEL-28 melanoma) greater than 100 µM, a GI50 (CAKI-1 renal) of 8.88 µM and a TGI (CAKI-1 renal) greater than 100 µM. For the same molecule, the GI50 (MDA-MB-231 breast) was 8.11 µM, the TGI (MDA-MB-231 breast) was 96 µM and the GI50 (HCC-2998 colon) was 8.75 µM. It also gave a TGI (HCC-2998 colon) greater than 100 µM, a GI50 (SF-539 CNS) of 17.5 µM and a TGI (SF-539 CNS) greater than 100 µM. It also gave a GI50 (IGROV1 ovarian) of 39.8 µM, a TGI (IGROV1 ovarian) greater than 100 µM and a GI50 (MDA-MB-435) of 14.3 µM. It also gave a TGI (MDA-MB-435) greater than 100 µM, a GI50 (HCT-116 colon) of 9.05 µM and a TGI (HCT-116 colon) greater than 100 µM. For the same molecule, the GI50 (SW-620 colon) was 41.1 µM, the TGI (SW-620 colon) was greater than 100 µM and the GI50 (SK-MEL-5 melanoma) was 22.8 µM. It also gave a TGI (SK-MEL-5 melanoma) greater than 100 µM, a GI50 (PC-3 prostate) of 4.61 µM and a TGI (PC-3 prostate) greater than 100 µM. It also gave a GI50 (UACC-62 melanoma) of 20.4 µM, a TGI (UACC-62 melanoma) greater than 100 µM and a GI50 (786-0 renal) of 18.8 µM. The TGI (786-0 renal) was greater than 100 µM, the GI50 (MOLT-4 leukemia) was 4.71 µM and the TGI (MOLT-4 leukemia) was greater than 100 µM. It also gave a GI50 (TK-10 renal) of 38.6 µM, a TGI (TK-10 renal) greater than 100 µM and a GI50 (SR leukemia) of 4.68 µM. It also gave a TGI (SR leukemia) greater than 100 µM, a GI50 (A498 renal) of 20.6 µM and a TGI (A498 renal) of 48.1 µM.

From PubChem BioAssay (NCI)
